Reference: article PMC11513924, “Addressing the Intracellular Vestibule of the Plasmodial Lactate Transporter PfFNT by p-Substituted Inhibitors Amplifies In Vitro Activity” (Journal of Medicinal Chemistry, 2024)
Positions count from the first letter of the chain named. Read-outs that look alike come from different tables or passages of the source.

Columns and labels:
[1] = Lipophilicity log D7.4 by HPLC (OECD guideline); type: physicochemical; conditions: RP-8 HPLC column (ZORBAX Eclipse XDB-C8), pH 7.4
Procedure: Lipophilicity was determined according to the OECD Guidelines for the Testing of Chemicals no. […]. Briefly, the test compounds plus 9 standards (4-acetylpyridine, acetanilide, acetophenone, methyl benzoate, ethyl benzoate, benzophenone, phenyl benzoate, diphenyl ether, triphenylamine) were separated by HPLC with UV detection at 220 nm (Waters HPLC 1525 with tunable absorbance detector 486) using an RP-8 column (Agilent Technologies ZORBAX Eclipse XDB-C8 4.6 × 150 mm, 5 μm) at 20 °C. Eluents A (20 mM ammonium formate, pH 7.4) and B (methanol) were used to generate a gradient profile of 80% A–100% B (0–35 min), 100% B (35–37 min), 100% B–80% A (37–42 min), and 80% A (42–55 min) at a flow rate of 0.8 mL min^–1. The dead time was determined via the injection peak caused by the solvent. The log D7.4 values were calculated by correlating the capacity factors with the known values of the standards via polynomial fitting.

[2] = test system: Plasmodium falciparum 3D7 parasites; conditions: ref Walloch[6] et al. 2020; read-out: EC50 (in vitro, 3D7); cited from earlier work
[3] = Microsomal clearance and half-life; type: in vitro ADME, human; conditions: 1 μM compound, 0.4 mg mL^–1 protein
Procedure: (§1) Clearance, half-life and plasma protein binding were assayed at TGC LifeScience, Kolkata, India, as described before.[36] Test compounds were incubated in duplicate in 96-well plates at 1 μM concentration with pooled human liver microsomes in 0.1 M phosphate buffer, pH 7.4 (0.4 mg mL^–1 final protein concentration; XenoTech, Lenexa, KS) in the presence and absence of 1 mM NADPH. Metabolism reactions were stopped by addition of 300 μL of ice-cold acetonitrile containing carbamazepine at 0.0236 μg mL^–1 as an internal standard, collection and analysis of the supernatant by LC–MS/MS (Agilent Rapid Resolution HPLC, AB SCIEX 4500 MS). The relative loss of the test compound over time was used to determine the first order rate constant for calculation of the in vitro intrinsic clearance and half-life.[37] Plasma protein binding was determined by ultracentrifugation from pooled human plasma spiked with 5 μM test compound. Aliquots were transferred immediately (total plasma concentration) or after 1 h at 37 °C (protein bound fraction) to ice-cold acetonitrile containing 0.0236 μg mL^–1 carbamazepine as an internal standard, ultracentrifuged for 4 h at 37 °C (Beckman Optima L-80XP), and analyzed by LC–MS/MS (Agilent Rapid Resolution HPLC, AB SCIEX 4500 QTRAP MS).

[4] = test system: albumin; test: Plasma protein (albumin) binding by ultracentrifugation; type: in vitro ADME; conditions: pooled human plasma
Procedure: as §1

[5] = test system: Plasmodium falciparum 3D7 parasites; test: P. falciparum 3D7 culture growth assay in erythrocytes (in vitro activity); type: cell-based; conditions: Plasmodium falciparum, 3D7, Erythrocyte; for activity at 0.05 µM / EC50 / activity at 0.1 µM / activity at 0.2 µM: 48 h; for activity at 0.05 µM / inhibition at 0.05 µM: 50 nM compound; for activity at 0.05 µM / activity at 0.1 µM / activity at 0.2 µM: % of untreated control; for activity at 0.05 µM: read-out: % Growth at 50 nM (in vitro, 3D7); for inhibition at 0.05 µM: 100 minus % growth, read-out: inhibitory activity at 50 nM (in vitro, 3D7); for EC50: cultures in erythrocytes, read-out: EC50 (in vitro, 3D7); for activity at 0.1 µM: 100 nM compound, read-out: % Growth at 100 nM (in vitro, 3D7); for activity at 0.2 µM: 200 nM compound, read-out: % Growth at 200 nM (in vitro, 3D7)
Procedure: The parasitemia was measured using an LSR II FACS (BD Biosciences) as described.[34],[35] Growth was assessed as % of untreated control. EC50 curves were plotted using Graph Pad Prism.
Transport assays in yeast were done in triplicate biological replicates. At least nine technical replicates were measured around the IC50 value, concentrations with no or full inhibition were determined from at least three technical replicates. […] IC50 and EC50 curves were fitted by the Hill equation with variable slope (Graph Pad Prism 10). Error bars denote ± SEM (for n ≥ 3) or ± range (for n = 2). […] Cytotoxicity was determined from biological triplicates; error is shown as SEM.

[6] = test system: P. berghei; design: method as in PMID 37428074; conditions: all dosing regimens; cited from earlier work
[7] = molecular target: T1, PfFNT (Plasmodium falciparum, UniProt O77389); test: Fluorescence cross-correlation spectroscopy (FCCS) competition binding to solubilized PfFNT-GFP
T1 construct: expressed in transfected cells; membranes solubilized
T1 sequence (O77389 1-309): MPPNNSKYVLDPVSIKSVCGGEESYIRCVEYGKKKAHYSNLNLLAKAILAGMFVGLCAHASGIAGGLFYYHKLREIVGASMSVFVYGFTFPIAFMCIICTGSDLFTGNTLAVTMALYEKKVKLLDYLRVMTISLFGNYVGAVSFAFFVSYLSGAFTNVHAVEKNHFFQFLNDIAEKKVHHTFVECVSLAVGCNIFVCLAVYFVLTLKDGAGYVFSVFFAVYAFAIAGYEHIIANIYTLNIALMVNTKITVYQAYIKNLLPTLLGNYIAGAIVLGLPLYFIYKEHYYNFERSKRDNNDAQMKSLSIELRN
Procedure: FCCS measurements were conducted and analyzed as before.[20],[30] Briefly, membranes of stably transfected cells expressing PfFNT with a C-terminal GFP (green) were solubilized. BH267.meta 2 fused with DY647 (red) was used as a tracer to monitor the binding of compounds in a competition assay. Assays were done in […] glass bottom plates (cat. no. PS96B-G175, SWISSCI, Switzerland) using a plate reader (Insight, Evotec Technologies, Germany) fitted with a U-Apo300 40× water immersion lens, NA 1.15 (Olympus, Japan). Excitation was done with an argon-ion laser (488 nm) and a helium–neon laser (633 nm). Fluorescence fluctuations were recorded 10 times for 5 s per sample and fitted using FCS+ plus Analyze (PerkinElmer software). Initially, IC50 values were determined from the concentration of the dual labeled complex titrated against a competitor in a range of 100 pM to 100 μM (Figure S1). Then, Ki values were calculated using the Cheng Prusoff equation[31] based on the previously determined KD value for the BH267.meta-DY647 tracer.[20]

[8] = molecular target: T2, PfFNT G107S (Plasmodium falciparum, UniProt O77389, G107S); test: Yeast-based 14C-lactate transport assay, PfFNT G107S resistance mutant; type: cell-based
T2 construct: expressed in transfected cells; host or cells: Saccharomyces cerevisiae (yeast transport assay; strain as for wild type, inferred from the shared method)
T2 sequence (O77389 1-309 G107S): T1 sequence (O77389 1-309) with G107S
Procedure: (§2) Lactate transport functionality of PfFNT was assayed as described before.[4] Briefly, Saccharomyces cerevisiae W303-1A jen1Δady2Δcells[32] (MATa, can1-100, ade2-loc, his3-11-15, leu2-3,-112, trp1-1-1, ura3-1, jen1::kanMX4, ady2::hphMX4) kindly provided by M. Casal expressing PfFNT was grown at 29 °C to an OD600 of 1 (±0.1). Harvested cells were resuspended to an OD600 of 50 (±5) in 50 mM HEPES/Tris, pH 6.8 (±0.1). 10–15 min prior to the assay, 80 μL of yeast suspension were added to 1 μL of DMSO with or without inhibitor in a 1.5 mL reaction tube at 18 °C. Twenty μL of L-lactate solution spiked with [1-^14C]-L-lactate (Hartmann Analytic) was added yielding a 1 mM inward gradient with 0.04 μCi label. Transport was stopped after 30 s by abrupt dilution with 1 mL of ice-cold water, vacuum filtration via GF/C filter membranes (Whatman), and washing with 7 mL of ice-cold water. The radio label was analyzed by liquid scintillation counting in 3 mL of scintillation cocktail (Rotiszint eco plus, Carl Roth) using a Packard TriCarb 2900 TR (PerkinElmer Inc.).
(§3) Transport assays in yeast were done in triplicate biological replicates. At least nine technical replicates were measured around the IC50 value, concentrations with no or full inhibition were determined from at least three technical replicates. EC50-values were determined from 2 to 4 biological replicates. IC50 and EC50 curves were fitted by the Hill equation with variable slope (Graph Pad Prism 10). Error bars denote ± SEM (for n ≥ 3) or ± range (for n = 2). For the EC50-value of 7a the error of the fitting of the curve is given. Cytotoxicity was determined from biological triplicates; error is shown as SEM.

[9] = molecular target: T1, PfFNT; test: Yeast-based PfFNT 14C-lactate transport assay; type: cell-based; conditions: 14C-lactate transport, PfFNT wild type; read-out: IC50 (transport, yeast)
Procedure: as §2, §3

| SMILES | activity at 0.05 µM [5] [%] | IC50 [9] [nM] | Ki [7] [nM] | activity at 0.1 µM [5] [%] | activity at 0.2 µM [5] [%] | further results |
| --- | --- | --- | --- | --- | --- | --- |
| O=C(/C=C(\O)C(F)(F)C(F)(F)F)c1cccnc1 [compound 2, 4,4,5,5,5-Pentafluoro-3-hydroxy-1-(pyridin-3-yl)pent-2-en-1-one, reference compound] | > 90 | – | – | – | – | chromatographic logD [1]: 1.75; EC50 [2]: 240 ± 10 nM; human liver microsomes Clint [3]: 3.98 mL min^–1 kg^–1; half-life at 1 µM ([3]; human, pooled human liver microsomes, pH 7.4, read-out: human liver microsomes t1/2): 5.8 h; unbound fraction in plasma [4]: 8.76%; albumin binding ([4]; 5 μM): 91.24%; inhibition at 0.05 µM [5]: < 10%; parasites eliminated [6]: > 99.7%; Ki ([7]; competition against BH267.meta-DY647 tracer, Cheng Prusoff, read-out: Ki (FCCS, protein)): 35 ± 10 nM |
| O=C(/C=C(\O)C(F)(F)C(F)(F)F)c1cccc(O)c1 [compound 6, 4,4,5,5,5-Pentafluoro-3-hydroxy-1-(3-hydroxyphenyl)pent-2-en-1-one] | – | 160 ± 10 | 26 ± 3 | – | – | IC50 [8]: 6710 nM |
| O=C(/C=C(\O)C(F)(F)C(F)(F)F)c1ccoc1 [5b, 4,4,5,5,5-Pentafluoro-1-(furan-3-yl)-3-hydroxypent-2-en-1-one] | – | 100 ± 10 | 72 ± 6 | – | – | EC50 [5]: 860 ± 80 nM |
| O=C(/C=C(\O)C(F)(F)C(F)(F)Cl)c1cccnc1 [3d, 5-Chloro-4,4,5,5-tetrafluoro-3-hydroxy-1-(pyridin-3-yl)pent-2-en-1-one] | – | 180 ± 30 | 37 ± 21 | – | – | EC50 [5]: 350 ± 30 nM |
| O=C(/C=C(\O)C(F)(F)C(F)(F)F)c1ccc(NCc2ccc(F)cc2)nc1 [7p, 4,4,5,5,5-Pentafluoro-1-(6-((4-fluorobenzyl)amino)pyridin-3-yl)-3-hydroxypent-2-en-1-one] | 37 | 390 ± 30 | 16 ± 3 | 7 | 0 | – |
| O=C(/C=C(\O)C(F)(F)C(F)(F)F)c1ccc(NCC2CC2)nc1 [7m, 1-(6-((Cyclopropylmethyl)amino)pyridin-3-yl)-4,4,5,5,5-pentafluoro-3-hydroxypent-2-en-1-one] | 6 | 170 ± 10 | 18 ± 3 | 3 | 2 | inhibition at 0.05 µM [5]: 94% |
| CCN(CC)c1ccc(C(=O)/C=C(\O)C(F)(F)C(F)(F)F)cn1 [7s, 1-(6-(Diethylamino)pyridin-3-yl)-4,4,5,5,5-pentafluoro-3-hydroxypent-2-en-1-one] | 71 | 380 ± 20 | 142 ± 24 | 76 | 80 | – |
| CCCCNc1ccc(C(=O)/C=C(\O)C(F)(F)C(F)(F)F)cn1 [7f, 1-(6-(Butylamino)pyridin-3-yl)-4,4,5,5,5-pentafluoro-3-hydroxypent-2-en-1-one] | 25 | 330 ± 10 | 27 ± 4 | 15 | 10 | – |
| CC(C)(C)Nc1ccc(C(=O)/C=C(\O)C(F)(F)C(F)(F)F)cn1 [7o, 1-(6-(tert-Butylamino)pyridin-3-yl)-4,4,5,5,5-pentafluoro-3-hydroxypent-2-en-1-one] | 97 | 370 ± 40 | 239 ± 101 | 97 | 93 | – |
| CCNc1ccc(C(=O)/C=C(\O)C(F)(F)C(F)(F)F)cn1 [7d, 1-(6-(Ethylamino)pyridin-3-yl)-4,4,5,5,5-pentafluoro-3-hydroxypent-2-en-1-one] | 45 | 120 ± 10 | 21 ± 5 | 13 | 6 | – |
| O=C(/C=C(\O)C(F)(F)C(F)(F)F)c1ccc(NC2CC2)nc1 [7k, 1-(6-(Cyclopropylamino)pyridin-3-yl)-4,4,5,5,5-pentafluoro-3-hydroxypent-2-en-1-one] | 44 | 190 ± 20 | 10 ± 2 | 11 | 5 | – |
